Assay [1] deals with Human hepatic cancer cells HepG2. The experiment in a line: TG production inhibiting activity (14C-acetic acid incorporation into TG) in HepG2 cells. It is filed as cell-based. The note with it: for IC50: group criterion. The procedure, abridged: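 HepG2 cells cultured 6 days in eRDF with 10% bovine serum, then in serum-free eRDF given compound (diluted from 20 mM DMSO stock) plus 14C-acetic acid for one day at 37 °C, 5% CO2. Lipids extracted with hexane/isopropanol 2:1 and separated by TLC; the TG spot was cut out and counted by liquid scintillation.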

A short description of assay [2]: Drug effect evaluation test: serum TG, total cholesterol and HDL in rats after 7 days of oral dosing. The note with it: SD male rats, 4 hours after final administration. It counts as in vivo. Here is the method:
6-(benzofuran-2-yl)-3,5-dimethyl-4-hydroxy-2H-pyran-2-one (Example 2) was suspended in a 0.5% carboxymethyl cellulose Na aqueous solution (vehicle) to prepare 20 mg/ml and 60 mg/ml administration solutions, and these were orally administered to 6-week-old SD male rats at a dose of 5 ml/kg once a day, for 7 consecutive days. CE-2 by Nihon Crea Co. was used for the rat feed, and the rats were allowed free access to food and water. The rats were separated into a vehicle-administered group of 6 rats and a drug-administered group of 6 rats for a test. At 4 hours after the final drug administration, the rats were killed under ether anesthesia, blood was drawn from the abdominal aorta, and the serum levels of TG, total cholesterol (TC) and HDL-were measured.
Triglyceride EII-HA Test Wako (product of Wako Junyaku Kogyo) was used for the TG measurement, HA Test Wako/Cholesterol E-HA Test Wako (product of Wako Junyaku Kogyo) was used for the total cholesterol (TC) measurement, and HDL-cholesterol Test Wako (product of Wako Junyaku Kogyo) was used for the HDL measurement.

The mark [3] stands for this setting: Homo sapiens, HepG2, alternatives: IC50 less than 10 μM, or at least 30% inhibition at 1 μM, or at least 50% inhibition at 10 μM.
The mark [4] stands for this setting: 100 mg/kg orally once a day for 7 days.
Setting [5] is: 300 mg/kg orally once a day for 7 days.
Where [6] appears, read: Homo sapiens, HepG2, alternatives: IC50 at least 10 μM and less than 100 μM, or at least 5% and less than 30% inhibition at 1 μM, or at least 30% and less than 50% inhibition at 10 μM.

For orientation: inhibition means the drop in the measured response relative to a control, in per cent. The low end stands for a response near the control, the high end for a response far below the control. As usually defined, the IC50 is the concentration that gives 50% inhibition. As to `Cc1c(-c2cc3ccccc3o2)oc(=O)c(C)c1O` [Example 2, 6-(benzofuran-2-yl)-3,5-dimethyl-4-hydroxy-2H-pyran-2-one], the “triglyceride biosynthesis inhibiting activity” value in assay [1] (HepG2, conclusion in words from Table 1) was “exhibits triglyceride biosynthesis inhibiting activity”. Moreover, in assay [1] (Homo sapiens, 24 h, sample concentration 1 μM, HepG2, one day culture with 14C-acetic acid), at 1 µM the inhibition was 22%. The inhibition at 10 µM in assay [1] (Homo sapiens, 24 h, sample concentration 10 μM, HepG2, one day culture with 14C-acetic acid) is 70%. The inhibition at 100 µM in assay [1] (Homo sapiens, 24 h, sample concentration 100 μM, HepG2, one day culture with 14C-acetic acid) turned out to be 98%. In assay [1] (setting [3]), this compound displayed an IC50 of under 10 µM. Besides, in assay [2] (setting [4]), the “Serum HDL-C (mg/dl) (mean ± SE)” value is 35.0 ± 3.1 mg/dL and the “Serum TG (mg/dl) (mean ± SE)” value is 94.8 ± 6.5 mg/dL. Besides, in assay [2] (setting [5]), the “Serum HDL-C (mg/dl) (mean ± SE)” value turned out to be 42.2 ± 3.8 mg/dL and the “Serum TG (mg/dl) (mean ± SE)” value came to 74.8 ± 10.7 mg/dL.

In the case of `COC(=O)c1ccc2oc(-c3oc(=O)c(C)c(O)c3C)cc2c1` [Example 290, 3,5-dimethyl-4-hydroxy-6-(5-(methoxycarbonyl)benzofuran-2-yl)-2H-pyran-2-one], the IC50 in assay [1] (setting [3]) was under 10 µM. The compound `COCOc1ccc2cc(-c3oc(=O)c(C)c(O)c3C)oc2c1` [Example 291, 3,5-dimethyl-4-hydroxy-6-(6-methoxymethoxybenzofuran-2-yl)-2H-pyran-2-one] displayed an IC50 in assay [1] (setting [3]) of under 10 µM. The compound `COCOc1ccc2cc(-c3oc(=O)c(C)c(OC(C)=O)c3C)oc2c1` [Example 292, 4-acetyloxy-3,5-dimethyl-6-(6-methoxymethoxybenzofuran-2-yl)-2H-pyran-2-one] came in with a half-maximal inhibitory concentration (IC50) in assay [1] (setting [6]) of 10 to 100 µM.

`CC(=O)Oc1c(C)c(-c2cc3cc(C(=O)Nc4ccccc4)ccc3o2)oc(=O)c1C` [Example 295, 4-acetyloxy-3,5-dimethyl-6-(5-(phenylcarbamoyl)benzofuran-2-yl)-2H-pyran-2-one] had an IC50 in assay [1] (setting [6]) of 10 to 100 µM. The same measure, in the same setting: then `CC(=O)Oc1c(C)c(-c2cc3cc(OC(=O)c4ccccc4)ccc3o2)oc(=O)c1C` [Example 296, 4-acetyloxy-6-(5-benzoyloxybenzofuran-2-yl)-3,5-dimethyl-2H-pyran-2-one], with 10 to 100 µM. `Cc1c(-c2cc3cc(N(C)S(=O)(=O)c4ccc(Cl)cc4)ccc3o2)oc(=O)c(C)c1O` [Example 297, 6-(5-(N-(4-chlorophenylsulfonyl)-N-methylamino)benzofuran-2-yl)-3,5-dimethyl-4-hydroxy-2H-pyran-2-one]: the IC50 in assay [1] (setting [3]) was under 10 µM. Regarding `Cc1c(-c2cc3cc(C(=O)N(C)c4ccccc4)ccc3o2)oc(=O)c(C)c1O` [Example 299, 3,5-dimethyl-4-hydroxy-6-(5-(N-methyl-N-phenylcarbamoyl)benzofuran-2-yl)-2H-pyran-2-one], the half-inhibitory concentration (IC50) in assay [1] (setting [3]) is under 10 µM. `Cc1c(-c2cc3cc(C(=O)N4CCc5ccccc5C4)ccc3o2)oc(=O)c(C)c1O` [Example 302, 3,5-dimethyl-4-hydroxy-6-(5-(1,3,4-trihydroisoquinolin-2-ylcarbonyl)benzofuran-2-yl)-2H-pyran-2-one] gave a 50% inhibitory concentration (IC50) in assay [1] (setting [3]) of under 10 µM. `Cc1c(-c2cc3cc(OCc4cncc(O)c4)ccc3o2)oc(=O)c(C)c1O` [Example 304, 3,5-dimethyl-4-hydroxy-6-(5-(5-hydroxy-3-pyridylmethoxy)benzofuran-2-yl)-2H-pyran-2-one]: the IC50 in assay [1] (setting [3]) is under 10 µM. The same measure, in the same setting: with `Cc1c(-c2cc3cc(C(=O)Nc4ccc(S(N)(=O)=O)cc4)ccc3o2)oc(=O)c(C)c1O` [Example 305, 3,5-dimethyl-4-hydroxy-6-(5-(4-(sulfamoyl)phenylcarbamoyl)benzofuran-2-yl)-2H-pyran-2-one] the figure was under 10 µM; with `Cc1c(-c2cc3cc(C(=O)NCc4ccncc4)ccc3o2)oc(=O)c(C)c1O` [Example 306, 3,5-dimethyl-4-hydroxy-6-(5-(4-pyridylmethylcarbamoyl)benzofuran-2-yl)-2H-pyran-2-one], under 10 µM. Take `Cc1c(-c2cc3cc(C4CCNCC4)ccc3o2)oc(=O)c(C)c1O` [Example 307, 3,5-dimethyl-4-hydroxy-6-(5-(4-piperidinyl)benzofuran-2-yl)-2H-pyran-2-one]: in assay [1] (setting [3]), the IC50 is under 10 µM. Consider `Cc1c(-c2cc3cc(C(=O)N(C)Cc4ccccc4)ccc3o2)oc(=O)c(C)c1O` [Example 308, 6-(5-(N-benzyl-N-methylcarbamoyl)benzofuran-2-yl)-3,5-dimethyl-4-hydroxy-2H-pyran-2-one], for which, in assay [1] (setting [3]), the IC50 was under 10 µM. `Cc1c(-c2cc3cc(C(=O)N(C)c4ccncc4)ccc3o2)oc(=O)c(C)c1O` [Example 309, 3,5-dimethyl-4-hydroxy-6-(5-(N-methyl-N-(4-pyridyl)carbamoyl)benzofuran-2-yl)-2H-pyran-2-one] gave an IC50 in assay [1] (setting [3]) of under 10 µM.

For the origin of these results see patent publication US6589984B1, “Benzofurylpyrone derivatives” (Teijin Limited, priority 1998, dated 2003).
